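Here, GI50 denotes the concentration required for 50% inhibition of growth. TGI marks complete inhibition of growth.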
Key:
Test in all cases: NCI tumour cell line growth inhibition, 384-well format
RXF 393 renal = tested on: RXF 393 renal
CCRF-CEM leukemia = tested on: CCRF-CEM leukemia
NCI/ADR-RES ovarian = tested on: NCI/ADR-RES ovarian
IGROV1 ovarian = tested on: IGROV1 ovarian
DU-145 prostate = tested on: DU-145 prostate
NCI-H522 lung = tested on: NCI-H522 lung
SNB-19 CNS = tested on: SNB-19 CNS
NCI-H460 NSCLC = tested on: NCI-H460 NSCLC
SF-268 CNS = tested on: SF-268 CNS
TK-10 renal = tested on: TK-10 renal
SF-539 CNS = tested on: SF-539 CNS
MDA-MB-435 melanoma = tested on: MDA-MB-435 melanoma
LOX IMVI melanoma = tested on: LOX IMVI melanoma
MCF7 breast = tested on: MCF7 breast
SN12C renal = tested on: SN12C renal
SK-MEL-2 melanoma = tested on: SK-MEL-2 melanoma
HOP-92 NSCLC = tested on: HOP-92 NSCLC
HCT-116 colon = tested on: HCT-116 colon
PC-3 prostate = tested on: PC-3 prostate
OVCAR-5 ovarian = tested on: OVCAR-5 ovarian
SK-OV-3 ovarian = tested on: SK-OV-3 ovarian
SW-620 colon = tested on: SW-620 colon
HCT-15 colon = tested on: HCT-15 colon
M14 melanoma = tested on: M14 melanoma
UO-31 renal = tested on: UO-31 renal
HCC-2998 colon = tested on: HCC-2998 colon
RPMI-8226 leukemia = tested on: RPMI-8226 leukemia
786-0 renal = tested on: 786-0 renal
A549 NSCLC = tested on: A549 NSCLC
NCI-H23 lung = tested on: NCI-H23 lung
OVCAR-3 ovarian = tested on: OVCAR-3 ovarian
UACC-62 melanoma = tested on: UACC-62 melanoma
SK-MEL-5 melanoma = tested on: SK-MEL-5 melanoma
CAKI-1 renal = tested on: CAKI-1 renal
UACC-257 melanoma = tested on: UACC-257 melanoma
A498 renal = tested on: A498 renal
MDA-MB-468 breast = tested on: MDA-MB-468 breast
HT29 colon = tested on: HT29 colon
OVCAR-8 ovarian = tested on: OVCAR-8 ovarian
SK-MEL-28 melanoma = tested on: SK-MEL-28 melanoma
KM12 colon = tested on: KM12 colon
SF-295 CNS = tested on: SF-295 CNS
HOP-62 NSCLC = tested on: HOP-62 NSCLC
U251 glioblastoma = tested on: U251 glioblastoma
COLO 205 colon = tested on: COLO 205 colon
NCI-H322M lung = tested on: NCI-H322M lung
MOLT-4 leukemia = tested on: MOLT-4 leukemia
MALME-3M melanoma = tested on: MALME-3M melanoma
SR leukemia = tested on: SR leukemia
T-47D breast = tested on: T-47D breast
MDA-MB-231 breast = tested on: MDA-MB-231 breast
HL-60(TB) leukemia = tested on: HL-60(TB) leukemia
K-562 leukemia = tested on: K-562 leukemia
OVCAR-4 ovarian = tested on: OVCAR-4 ovarian
BT-549 breast = tested on: BT-549 breast
NCI-H226 lung = tested on: NCI-H226 lung
ACHN renal = tested on: ACHN renal

What does the source list for `C=C(F)C(=O)N1CCN(c2nc(OC[C@@H]3CCCN3C)nc3c2CCN(c2cccc4cccc(Cl)c24)C3)C[C@@H]1CC#N`?
GI50 (RXF 393 renal): 379 nM; TGI (RXF 393 renal): 1560 nM; GI50 (CCRF-CEM leukemia): 351 nM; TGI (CCRF-CEM leukemia): 1340 nM; GI50 (NCI/ADR-RES ovarian): 411 nM; TGI (NCI/ADR-RES ovarian): 1440 nM; GI50 (IGROV1 ovarian): 1290 nM; TGI (IGROV1 ovarian): 2610 nM; GI50 (DU-145 prostate): 1210 nM; TGI (DU-145 prostate): 2480 nM; GI50 (NCI-H522 lung): 255 nM; TGI (NCI-H522 lung): 861 nM; GI50 (SNB-19 CNS): 745 nM; TGI (SNB-19 CNS): 1960 nM; GI50 (NCI-H460 NSCLC): 414 nM; TGI (NCI-H460 NSCLC): 1390 nM; GI50 (SF-268 CNS): 542 nM; TGI (SF-268 CNS): 1660 nM; GI50 (TK-10 renal): 925 nM; TGI (TK-10 renal): 2160 nM; GI50 (SF-539 CNS): 472 nM; TGI (SF-539 CNS): 1520 nM; GI50 (MDA-MB-435 melanoma): 1270 nM; TGI (MDA-MB-435 melanoma): 2550 nM; GI50 (LOX IMVI melanoma): 1100 nM; TGI (LOX IMVI melanoma): 2310 nM; GI50 (MCF7 breast): 1190 nM; TGI (MCF7 breast): 2430 nM; GI50 (SN12C renal): 1200 nM; TGI (SN12C renal): 2440 nM; GI50 (SK-MEL-2 melanoma): 484 nM; TGI (SK-MEL-2 melanoma): 1630 nM; GI50 (HOP-92 NSCLC): 341 nM; TGI (HOP-92 NSCLC): 931 nM; GI50 (HCT-116 colon): 326 nM; TGI (HCT-116 colon): 1350 nM; GI50 (PC-3 prostate): 723 nM; TGI (PC-3 prostate): 2010 nM; GI50 (OVCAR-5 ovarian): 386 nM; TGI (OVCAR-5 ovarian): 1190 nM; GI50 (SK-OV-3 ovarian): 1070 nM; TGI (SK-OV-3 ovarian): 2280 nM; GI50 (SW-620 colon): 1120 nM; TGI (SW-620 colon): 2350 nM; GI50 (HCT-15 colon): 568 nM; TGI (HCT-15 colon): 1710 nM; GI50 (M14 melanoma): 692 nM; TGI (M14 melanoma): 1920 nM; GI50 (UO-31 renal): 1150 nM; TGI (UO-31 renal): 2370 nM; GI50 (HCC-2998 colon): 1080 nM; TGI (HCC-2998 colon): 2280 nM; GI50 (RPMI-8226 leukemia): 165 nM; TGI (RPMI-8226 leukemia): 491 nM; GI50 ([…]-0 renal): 509 nM; TGI (786-0 renal): 1780 nM; GI50 (A549 NSCLC): 561 nM; TGI (A549 NSCLC): 1840 nM; GI50 (NCI-H23 lung): < 10 nM; GI50 (OVCAR-3 ovarian): 657 nM; TGI (OVCAR-3 ovarian): 1880 nM; GI50 (UACC-62 melanoma): 692 nM; TGI (UACC-62 melanoma): 1910 nM; GI50 (SK-MEL-5 melanoma): 564 nM; TGI (SK-MEL-5 melanoma): 1810 nM; GI50 (CAKI-1 renal): 499 nM; TGI (CAKI-1 renal): 1690 nM; GI50 (UACC-257 melanoma): 749 nM; TGI (UACC-257 melanoma): 2020 nM; GI50 (A498 renal): 471 nM; TGI (A498 renal): 1590 nM; GI50 (MDA-MB-468 breast): 275 nM; TGI (MDA-MB-468 breast): 1110 nM; GI50 (HT29 colon): 652 nM; TGI (HT29 colon): 1930 nM; GI50 (OVCAR-8 ovarian): 405 nM; TGI (OVCAR-8 ovarian): 1360 nM; GI50 (SK-MEL-28 melanoma): 1130 nM; TGI (SK-MEL-28 melanoma): 2360 nM; GI50 (KM12 colon): 561 nM; TGI (KM12 colon): 1750 nM; GI50 (SF-295 CNS): 1480 nM; TGI (SF-295 CNS): 2810 nM; GI50 (HOP-62 NSCLC): < 10 nM; TGI (HOP-62 NSCLC): 1390 nM; GI50 (U251 glioblastoma): 285 nM; TGI (U251 glioblastoma): 994 nM; GI50 (COLO 205 colon): 564 nM; TGI (COLO 205 colon): 1740 nM; GI50 (NCI-H322M lung): 1270 nM; TGI (NCI-H322M lung): 2590 nM; GI50 (MOLT-4 leukemia): 182 nM; TGI (MOLT-4 leukemia): 384 nM; GI50 (MALME-3M melanoma): 1330 nM; TGI (MALME-3M melanoma): 2610 nM; GI50 (SR leukemia): 134 nM; TGI (SR leukemia): 512 nM; GI50 (T-47D breast): 430 nM; TGI (T-47D breast): 1900 nM; GI50 (MDA-MB-231 breast): 417 nM; TGI (MDA-MB-231 breast): 1420 nM; GI50 (HL-60(TB) leukemia): 637 nM; TGI (HL-60(TB) leukemia): 1820 nM; GI50 (K-562 leukemia): 253 nM; TGI (K-562 leukemia): 1320 nM; GI50 (OVCAR-4 ovarian): 853 nM; TGI (OVCAR-4 ovarian): 2120 nM; GI50 (BT-549 breast): 1210 nM; TGI (BT-549 breast): 2450 nM; GI50 (NCI-H226 lung): 915 nM; TGI (NCI-H226 lung): 2140 nM; GI50 (ACHN renal): 992 nM; TGI (ACHN renal): 2160 nM
